Data: patent publication US12391686B2, “Compounds and uses thereof” (Foghorn Therapeutics Inc., priority 2019, dated 2025)
Like-named read-outs stand apart in the source and are kept apart here.

Biological target: T1, Nanoluciferase-BRD9 fusion protein (3×FLAG-NLuc-BRD9) in SYO-1 cells (Homo sapiens, UniProt Q9H8M2)
T1 construct: expressed in transfected cells; host or cells: SYO-1
T1 sequence (Q9H8M2 1-597): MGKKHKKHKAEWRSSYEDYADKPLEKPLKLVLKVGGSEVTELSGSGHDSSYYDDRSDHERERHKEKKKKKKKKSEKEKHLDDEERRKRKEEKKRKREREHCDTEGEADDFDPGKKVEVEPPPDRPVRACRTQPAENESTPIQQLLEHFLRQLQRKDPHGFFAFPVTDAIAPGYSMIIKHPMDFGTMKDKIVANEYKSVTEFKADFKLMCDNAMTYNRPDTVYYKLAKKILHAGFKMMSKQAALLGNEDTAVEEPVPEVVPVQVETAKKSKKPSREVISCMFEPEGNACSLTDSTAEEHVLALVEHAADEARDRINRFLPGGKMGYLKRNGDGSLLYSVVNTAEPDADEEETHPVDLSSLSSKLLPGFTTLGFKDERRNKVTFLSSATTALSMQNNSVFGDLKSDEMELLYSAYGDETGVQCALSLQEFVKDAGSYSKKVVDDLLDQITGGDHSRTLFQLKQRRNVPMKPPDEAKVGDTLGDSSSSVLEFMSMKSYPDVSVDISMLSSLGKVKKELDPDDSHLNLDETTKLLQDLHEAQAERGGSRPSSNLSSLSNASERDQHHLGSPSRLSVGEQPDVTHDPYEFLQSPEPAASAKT
Assay: SYO1 BRD9 NanoLuc Degradation Assay
Type: cell-based
Conditions: SYO-1 cells expressing 3×FLAG-NLuc-BRD9, 6 hours incubation, 1 μM top dose, read-out: SYO1 BRD9-NanoLuc degradation IC50
Protocol: Procedure: A stable SYO-1 cell line expressing 3×FLAG-NLuc-BRD9 was generated. On day 0 cells were seeded in 30 μL media into each well of 384-well cell culture plates. The seeding density was 8000 cells/well. On day 1, cells were treated with 30 nL DMSO or 30 nL of 3-fold serially DMSO-diluted compounds (10 points in duplicates with 1 μM as final top dose). Subsequently plates were incubated for 6 hours in a standard tissue culture incubator and equilibrated at room temperature for 15 minutes. Nanoluciferase activity was measured by adding 15 μL of freshly prepared Nano-Glo Luciferase Assay Reagent (Promega N1130), shaking the plates for 10 minutes and reading the bioluminescence using an EnVision reader.
Results: The Inhibition % was calculated using the following formula: % Inhibition=100×(LumHC−Lumsample)/(LumHC−LumLC). DMSO treated cells are employed as High Control (HC) and 1 μM of a known BRD9 degrader standard treated cells are employed as Low Control (LC).

`COc1cc(-c2cn(C)c(=O)c3cnc(N4CCC4)cc23)cc(OC)c1CN1CCC(c2ccc3c(c2)CN(C2CCC(=O)NC2=O)C3=O)CC1` (stereo not drawn) [Compound D312] gave a DC50 (Table 6C) of under 10 nM.
In the case of `COc1cc(-c2cn(C)c(=O)c3cnc(N(C)C)cc23)cc(OC)c1CN1CC2(CCN(C(C)(C)C#Cc3ccc4c(c3)C(=O)N(C3CCC(=O)NC3=O)C4=O)CC2)C1` (stereo not drawn) [Compound D73], the DC50 (Table 6B) is reported as under 10 nM.
`CCc1cc(-c2cn(C)c(=O)c3cnc(N(C)C)cc23)cc(OC)c1CN1CCC(CN2CCC3(CC2)CC(Oc2ccc4c(c2)C(=O)N(C2CCC(=O)NC2=O)C4=O)C3)CC1` (stereo not drawn) [Compound D174] was tested, and the DC50 (Table 6B) was under 10 nM.
For `COc1cc(-c2cn(C)c(=O)c3cnc(N(C)C)cc23)cc(OC)c1CN(C)CC12CC(C(=O)NCCCCCNc3cccc4c3C(=O)N(C3CCC(=O)NC3=O)C4=O)(C1)C2` (stereo not drawn) [Compound D35], the DC50 (Table 6B) was under 10 nM.
`COc1cc(-c2cn(C)c(=O)c3cnc(N(C)C)cc23)cc(OC)c1CN1CCC(CN2CCC3(CC2)CC(Oc2ccc4c(c2)C(=O)N(C2CCC(=O)NC2=O)C4=O)C3)CC1` (stereo not drawn) [Compound D54] was tested, and the DC50 (Table 6B) was under 10 nM.
`COc1cc(-c2cn(C)c(=O)c3cnc(N(C)C)cc23)cc(OC)c1CN1CC(CN2CCC3(CC2)CN(c2ccc4c(c2)CN(C2CCC(=O)NC2=O)C4=O)C3)C1` (stereo not drawn) [Compound D143] gave a DC50 (Table 6B) of under 10 nM.
`COc1cc(-c2cn(C)c(=O)c3cnc(N4CCC4)cc23)ccc1CN1CCC2(CC1)CN(c1ccc3c(c1)CN(C1CCC(=O)NC1=O)C3=O)C2` (stereo not drawn) [Compound D148] gave a DC50 (Table 6B) of under 10 nM.
In the case of `CCOC1CC1c1cc2c(-c3cc(OC)c(CN4CCN(CCC5CCN(c6ccc7c(c6)C(=O)N(C6CCC(=O)NC6=O)C7=O)CC5)CC4)c(OC)c3)cn(C)c(=O)c2cn1` (stereo not drawn) [Compound D204], the DC50 (Table 6C) is reported as under 10 nM.
With `COc1cc(-c2cn(C)c(=O)c3cnc(N4CCC4)cc23)ccc1CN1CCC2(CC1)CN(c1ccc3c(c1)C(=O)N(C1CCC(=O)NC1=O)C3)C2` (stereo not drawn) [Compound D149] the DC50 (Table 6B) was under 10 nM.
In the case of `[2H]C([2H])([2H])N(c1cc2c(-c3cc(OC)c(CN4CCN(CCC5CCN(c6ccc7c(c6)C(=O)N(C6CCC(=O)NC6=O)C7)CC5)CC4)c(OC)c3)cn(C)c(=O)c2cn1)C([2H])([2H])[2H]` (stereo not drawn) [Compound D197], the DC50 (Table 6C) is reported as under 10 nM.
`COc1cc(-c2cn(C)c(=O)c3cnc(C(F)(F)F)cc23)cc(OC)c1CN1CC(CN2CCC3(CC2)CN(c2ccc4c(c2)C(=O)N(C2CCC(=O)NC2=O)C4)C3)C1` (stereo not drawn) [Compound D186] gave a DC50 (Table 6C) of under 10 nM.
For `COc1cc2c(-c3cc(OC)c(CN4CCC(CCN5CCC6(CC5)CN(c5ccc7c(c5)C(=O)N(C5CCC(=O)NC5=O)C7)C6)CC4)c(OC)c3)cn(C)c(=O)c2cn1` (stereo not drawn) [Compound D199], the DC50 (Table 6C) was under 10 nM.
In the case of `COc1cc(-c2cn(C)c(=O)c3cnc(N(C)C)cc23)c2c(c1)N(CCCCCN1CCC3(CC1)CC(Oc1ccc4c(c1)C(=O)N(C1CCC(=O)NC1=O)C4=O)C3)CC2` (stereo not drawn) [Compound D46], the DC50 (Table 6B) is reported as under 10 nM.
For `COc1cc(-c2cn(C)c(=O)c3cnc(C4CC4)cc23)cc(OC)c1CN1CCC(CCN2CCN(c3ccc4c(c3)C(=O)N(C3CCC(=O)NC3=O)C4)CC2)CC1` (stereo not drawn) [Compound D305], the DC50 (Table 6C) was under 10 nM.
For `COc1cc(-c2cn(C)c(=O)c3cnc(N(C)C)cc23)cc(OC)c1CN1CCN(C(C)(C)COc2ccc3c(c2)C(=O)N(C2CCC(=O)NC2=O)C3=O)CC1` (stereo not drawn) [Compound D78], the DC50 (Table 6B) was under 10 nM.
Work on `COc1cc(-c2cn(C)c(=O)c3ccc(N4CCC4)cc23)cc(OC)c1CN1CCC(N2CCN(c3ccc4c(c3)CN(C3CCC(=O)NC3=O)C4=O)CC2)CC1` (stereo not drawn) [Compound D176] yielded a DC50 (Table 6B) of under 10 nM.
For `COc1cc(-c2cn(C)c(=O)c3ccc(N(C)C)cc23)cc(OC)c1CN1CC(CN2CCC3(CC2)CN(c2ccc4c(c2)C(=O)N(C2CCC(=O)NC2=O)C4)C3)C1` (stereo not drawn) [Compound D285], the DC50 (Table 6C) was at least 1000 nM.
With `COc1cc(-c2cn(C)c(=O)c3ccc(N4CCC4)cc23)cc(OC)c1CN1CCC(C2CCN(c3ccc4c(c3)CN(C3CCC(=O)NC3=O)C4=O)CC2)CC1` (stereo not drawn) [Compound D181] the DC50 (Table 6B) was at least 1000 nM.
In the case of `COc1cc(-c2cn(C)c(=O)c3cnc(N(C)C)cc23)cc(OC)c1CN1CC(CC(=O)N2CCC3(CC2)CC(Oc2ccc4c(c2)C(=O)N(C2CCC(=O)NC2=O)C4=O)C3)C1` (stereo not drawn) [Compound D42], the DC50 (Table 6B) is reported as under 10 nM.
In the case of `CCOC1CC1c1cc2c(-c3cc(OC)c(CN4CCN(CCC5CCN(c6ccc7c(c6)C(=O)N(C6CCC(=O)NC6=O)C7)CC5)CC4)c(OC)c3)cn(C)c(=O)c2cn1` (stereo not drawn) [Compound D203], the DC50 (Table 6C) is reported as under 10 nM.
`CCc1cc(-c2cn(C)c(=O)c3cnc(N(C)C)cc23)cc(OC)c1CN1CCC(CN2CCC3(CC2)CC(Oc2ccc4c(c2)C(=O)N(C2CCC(=O)NC2=O)C4=O)C3)CC1` (stereo not drawn) [Compound D112] showed a DC50 (Table 6B) of under 10 nM.
Work on `COc1cc(-c2cn(C)c(=O)c3cnc(N(C)C)cc23)cnc1CN1CCC(CCN2CCN(c3ccc4c(c3)C(=O)N(C3CCC(=O)NC3=O)C4=O)CC2)CC1` (stereo not drawn) [Compound D48] yielded a DC50 (Table 6B) of under 10 nM.
Work on `COc1cc(-c2cn(C)c(=O)c3cnc(N(C)C)cc23)cc(OC)c1CC1CCN(c2ccc3c(c2)C(=O)N(C2CCC(=O)NC2=O)C3)CC1` (stereo not drawn) [Compound D280] yielded a DC50 (Table 6C) of under 10 nM.
Compound `COc1cc(-c2cn(C)c(=O)c3cnc(N(C)C)cc23)cc(OC)c1CN1CC(C#Cc2ccc3c(c2)C(=O)N(C2CCC(=O)NC2=O)C3=O)C1` (stereo not drawn) [Compound D89] has a DC50 (Table 6B) of under 10 nM.
Compound `[2H]C([2H])([2H])n1cc(-c2cc(OC)c(CN3CC(Oc4ccc5c(c4)CN(C4CCC(=O)NC4=O)C5=O)C3)c(OC)c2)c2cc(OC)ncc2c1=O` (stereo not drawn) [Compound D242] has a DC50 (Table 6C) of under 10 nM.
Compound `C/C=C/n1cc(-c2cc(OC)c(CN3CCN(CCC4CCN(c5ccc6c(c5)C(=O)N(C5CCC(=O)NC5=O)C6=O)CC4)CC3)c(OC)c2)c2cc(N(C)C)ncc2c1=O` (stereo not drawn) [Compound D139] has a DC50 (Table 6B) of under 10 nM.
In the case of `COc1cc(-c2cn(C)c(=O)c3cnc(N4CCC4)cc23)cc(OC)c1CN1CCC2(CC1)CN(c1ccc3c(c1)C(=O)N(C1CCC(=O)NC1=O)C3=O)C2` (stereo not drawn) [Compound D126], the DC50 (Table 6B) is reported as under 10 nM.
`COc1cc(-c2cn(C)c(=O)c3cnc(C4CC4)cc23)cc(OC)c1CN1CCC(C#Cc2ccc3c(c2)C(=O)N(C2CCC(=O)NC2=O)C3)CC1` (stereo not drawn) [Compound D269] showed a DC50 (Table 6C) of under 10 nM.
With `COc1cc(-c2cn(C)c(=O)c3cnc(N(C)C)cc23)cc(OC)c1-c1ccc2c(c1)C(=O)N(C1CCC(=O)NC1=O)C2` (stereo not drawn) [Compound D274] the DC50 (Table 6C) was under 10 nM.
`COc1cc(-c2cn(C)c(=O)c3cnc(N(C)C)cc23)cc(OC)c1CN1CC(C(C)(C)N2CCC3(CC2)CN(c2ccc4c(c2)C(=O)N(C2CCC(=O)NC2=O)C4=O)C3)C1` (stereo not drawn) [Compound D97] was tested, and the DC50 (Table 6B) was under 10 nM.
Compound `COc1cc(-c2cn(C)c(=O)c3cnc(N4CCC4)cc23)cc(OC)c1CN1CCC(CN2CCC3(CC2)CC(Oc2ccc4c(c2)C(=O)N(C2CCC(=O)NC2=O)C4)C3)CC1` (stereo not drawn) [Compound D187] has a DC50 (Table 6C) of under 10 nM.
`COc1cc(-c2cn(C)c(=O)c3cnc(C4CC4)cc23)cc(OC)c1CN1CCC(C(N2CCC3(CC2)CC(Oc2ccc4c(c2)C(=O)N(C2CCC(=O)NC2=O)C4=O)C3)C(F)(F)F)CC1` (stereo not drawn) [Compound D195] showed a DC50 (Table 6C) of under 10 nM.
In the case of `COc1cc2c(-c3cc(OC)c(C4CCN(c5ccc6c(c5)C(=O)N(C5CCC(=O)NC5=O)C6)CC4)c(OC)c3)cn(C)c(=O)c2cn1` (stereo not drawn) [Compound D295], the DC50 (Table 6C) is reported as under 10 nM.
With `COc1cc(-c2cn(C)c(=O)c3cnc(N(C)C)cc23)cc(OC)c1CN1CCC2(CC1)CC(N1CCN(C3CCC(=O)NC3=O)C(=O)C1)C2` (stereo not drawn) [Compound D251] the DC50 (Table 6C) was at least 1000 nM.
In the case of `CNc1cc2c(-c3cc(OC)c(CN4CCN(CCC5CCN(c6ccc7c(c6)C(=O)N(C6CCC(=O)NC6=O)C7=O)CC5)CC4)c(OC)c3)cn(C)c(=O)c2cn1` (stereo not drawn) [Compound D106], the DC50 (Table 6B) is reported as under 10 nM.
Work on `COc1cc(-c2cn(C)c(=O)c3cnc(N4CCC4)cc23)cc(OC)c1CN1CCC(CN2CCC3(CC2)CN(c2ccc4c(c2)CN(C2CCC(=O)NC2=O)C4=O)C3)CC1` (stereo not drawn) [Compound D218] yielded a DC50 (Table 6C) of under 10 nM.
